Assay [1] has as its system ZR-75-30 cells. The experiment in a line: Cell growth (CCK-8), HER2 positive cell line. The assay is classed as cell-based, human. Conditions: ZR-75-30, 100 μmol/l, CCK-8 at 48 hr post-transfection (Fig. 6f).
Experimental: Cell growth was analyzed using 2-(2-methoxy-4-nitrophenyl)-3-(4-nitroph enyl)-5-(2,4-disulfophenyl)-2H-tetrazolium, monosodium salt, and the Cell Counting Kit-8 (CCK-8, Sigma). […] After culturing for another 48 hr, cell growth was analyzed by CCK-8 and the optical density was detected at 450 nm. The growth ratio was normalized to the cells without treatment.
In assay [2] the test system is β-catenin/TCF4/LEF-1 downstream genes. In words: Q-PCR of 27 candidate genes in MCF-7. Format: cell-based, human. Conditions: MCF-7, 100 μmol/l, 48 hr post-transfection, relative to TAT-NLS-BLBD-6m (Fig. 6d). On the procedure: Total RNA was isolated by Trizol reagent (Invitrogen, Carlsbad, CA, USA) and reverse transcribed to produce cDNA using the Deoxy + HiSpec reverse transcriptase kit (Yeastern, Taipei, Taiwan) according to the manufacturer instructions. Q-PCR was analyzed with SYBR Green Master Mix (Applied Biosystems, Stockholm, Sweden) and subjected to quantitation in an […]. The primers used for PCR are given in Supplementary Table S5 online. The Q-PCR data were normalized to 18S cDNA levels.

In assay [3] the test system is MDA-MB-231-GFP cells in zebrafish embryos. In words: Zebrafish xenotransplantation, fluorescence density. As to conditions: MDA-MB-231-GFP co-injected with 100 μmol/l peptide into yolk sacs, between 24 hr and 48 hr, n = 20 per group, vs TAT-NLS-BLBD-6m. The assay is classed as in vivo, Danio rerio. The source says: All animal experiments were approved by the Kaohsiung Medical University Institutional Animal Care and Use Committee (IACUC Approval No: 101156) and we accordance with the approved guidelines. Female nude mice (4–5 weeks old) were obtained from the National Laboratory Animal Center (Taipei, Taiwan). Xenograft tumor models were established by subcutaneous injection of 1 × 10^7 MCF-7-YFP or MDA-MB-231-GFP cells into the right flanks of mice. Mice with palpable tumors were randomly divided into three groups with five animals in each group. The mice were treated with control peptide, 0, 1 and 10 mg/kg TAT-NLS-BLBD-6 by intratumoral injection once every 2 days for 35 days. The fluorescence density was analyzed by an In Vivo Imaging System (IVIS) (Berthold Technologies, Bad Wildbad, Germany), and the tumor volumes (V) of nude mice were calculated by: V = length × diameter^2 × 0.5. For zebrafish xenotransplantation, zebrafishes (Danio rerio) were maintained at 28 °C in an air incubator, and 1 × 10^4 MCF-7-GFP or MDA-MB-231-GFP cells combined with TAT-NLS-BLBD-6 or control peptide were injected into the zebrafish embryos according to the previously described protocol. […]

The subject of assay [4] is MDA-MB-231 cells. In words: TUNEL apoptosis assay. Format: cell-based, human. As to conditions: MDA-MB-231, 100 μmol/l, vs control or TAT-NLS-BLBD-6m (Fig. 3b). As for the experimental part: (§1) MCF-7 and MDA-MB-231 cells were cultured in 35-mm plates with cover slides on the plate bottom and treated with NLS-BLBD-6, TAT-BLBD-6 and TAT-NLS-BLBD-6 peptide for 24 hr. Subsequently, cells were fixed with 4% paraformaldehyde and permeabilized with 0.2% Triton X-100 for 20 min at room temperature. For the immunofluorescence assay, the slides were incubated with primary antibodies, anti-β-catenin (Epitomics) and anti-TAT (Santa Cruz), for 6 hr, and Alexa-488 fluorescence secondary antibodies for 1 hr. DAPI (Sigma, St Louis, MO) was used to stain the nucleus for 1 min at room temperature. For the TUNEL assay, apoptosis was analyzed by the Apo-BrdU-red DNA Fragmentation Assay kit, according to the manufacturer’s protocol (BioVision, Mountain View, CA, USA). For the PLA, the protein–protein interaction assay was analyzed by Duolink® using PLA® Technology, according to the manufacturer’s protocol (Olink Bioscience, Uppsala, Sweden). Briefly, the slides were incubated with primary antibodies, anti-β-catenin (Epitomics) and anti-TAT (Santa Cruz), and secondary antibodies, Duolink PLA Rabbit MINUS and PLA Mouse PLUS proximity probes. Finally, the proximity ligation was performed by the Duolink detection reagent kit (Olink Bioscience). The immunofluorescence image and TUNEL staining was photographed by a microscope (IX-71, Olympus, Tokyo, Japan).

For assay [5], the system named is MCF-7 cells. The experiment in a line: TUNEL apoptosis assay. Format: cell-based, human. Conditions: MCF-7, 100 μmol/l, vs control or TAT-NLS-BLBD-6m (Fig. 3b). As for the experimental part:
as §1

Consider one substance from publication PMC4707489, “A novel cell-penetrating peptide suppresses breast tumorigenesis by inhibiting β-catenin/LEF-1 signaling” (Scientific Reports, 2016).

H-TAT-NLS-ATDEMIPF-NH2 [TAT-NLS-BLBD-6]: in assay [1], the cell growth entry was “inhibits the growth”. Further, in assay [2], the “gene expression of the 27 candidate genes” value is recorded as “decreased”. For the same substance, the “fluorescence density of transplanted tumor cells” value in assay [3] is listed as “gradually reduced”. Besides, the “apoptosis (TUNEL, BrdU binding and DNA fragmentation)” value in assay [4] was “increased the effect of binding with BrdU and DNA fragmentation”; in assay [5], “increased the effect of binding with BrdU and DNA fragmentation”.
